These results are taken from patent publication US9943506B2, “BCL6 inhibitors as anticancer agents” (Cornell University, priority 2013, dated 2018).

One data set relates to Ly1B50 DLBCL cells. Kind of data set: Growth inhibition of DLBCL cells, Ly1B50. The conditions noted are these: Table 2; BCL-6 independent; 48 hours. The format is cell-based. Summed up: (§1)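 Seed 50,000 cells/well; add compounds at different concentrations or DMSO; incubate 48 hours; measure viability by Cell Titer Blue; express growth inhibition relative to DMSO; fit dose-response curves for GI50.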

A further data set deals with Toledo DLBCL cells. Put plainly: Growth inhibition of DLBCL cells, Toledo. The format is cell-based. The settings on record: Homo sapiens, Table 2, BCL-6 independent, 48 hours. In short, it runs like this:
as §1

In another data set the test system is SUDHL6 DLBCL cells. Kind of data set: Growth inhibition of DLBCL cells, SUDHL6. Type of data set: cell-based. The settings on record: Homo sapiens, SU-DHL-6; Table 2; BCL-6 dependent; 48 hours; read-out: GI50 SUDH6. In short, it runs like this:
as §1

Data set [1] relates to BCL6 dependent aggressive ABC DLBCLs. Put plainly: ABC DLBCL in vitro and in vivo treatment. The source says:
(§2) BCL6 is also required for normal development of germinal center (GC) B-cells.

In data set [2] the test system is BCL6 dependent GCB DLBCLs. Put plainly: GCB DLBCL tumors in vivo.
Text: as §2

Data set [3] in a line: Stability in administration vehicle by NMR spectroscopy. Type of data set: physicochemical. As to the method:
First, the stability of the compound in the administration vehicle of 30% PEG-300, 5% Tween-80, and 65% dextrose 5%, was evaluated at room temperature over a period of up to 8 days by NMR spectroscopy.
The toxic effects of 1085 on mice were then examined. Five C57BL/6 mice were exposed to daily intraperitoneal (IP) administration of increasing doses of the compound ranging from 50 to 150 mg/kg over the course of 7 days, to a cumulative dose of 750 mg/kg, and another five mice were exposed to vehicle only. […] Brain, heart, lung, liver, kidney, bowel, spleen, and bone marrow tissues were examined. Complete peripheral blood counts, biochemistry and liver function tests were normal.

Another data set deals with Ly7 DLBCL cells. Kind of data set: Growth inhibition of DLBCL cells, Ly7. The format is cell-based. The conditions noted are these: Table 2; BCL-6 dependent; 48 hours. In short, it runs like this: as §1
A further data set deals with Ly3 DLBCL cells. Put plainly: Growth inhibition of DLBCL cells, Ly3. Type of data set: cell-based. The settings on record: Table 2; BCL-6 dependent; 48 hours. In short, it runs like this: as §1
A further data set relates to germinal center. Put plainly: Germinal center formation in immunized mice. The settings on record: 10 days, 100 mg/kg.
Data set [4] concerns primary human ABC DLBCL samples. Put plainly: Primary human ABC DLBCL samples.
Data set [5] can be described thus: Pharmacokinetics in vitro and in vivo.
The next data set has as its system Karpas 422 DLBCL cells. Put plainly: Growth inhibition of DLBCL cells, Karpas 422. Type of data set: cell-based. The settings on record: Homo sapiens, Table 2, BCL-6 independent, 48 hours, read-out: GI50 Karpas 422. Summed up: as §1
For the next data set, the system named is Ly10 DLBCL cells. Put plainly: Growth inhibition of DLBCL cells, Ly10. Type of data set: cell-based. The conditions noted are these: Table 2, BCL-6 dependent, 48 hours. In short, it runs like this: as §1
In another data set the test system is mice. Kind of data set: Toxicity of 1085 in mice. The format is in vivo. The settings on record: C57BL/6 mice, daily IP 50 to 150 mg/kg over 7 days. As to the method: […]. BCL6 is also required for normal development of germinal center (GC) B-cells. […]. Noteworthy, BCL6 dependent aggressive ABC DLBCLs were also sensitive to the in vitro and in vivo treatment with 1085, and even primary human ABC DLBCL samples were sensitive to the treatment with the new BCL6 inhibitor.
[…]. Five C57BL/6 mice were exposed to daily intraperitoneal (IP) administration of increasing doses of the compound ranging from 50 to 150 mg/kg over the course of 7 days, to a cumulative dose of 750 mg/kg, and another five mice were exposed to vehicle only. […] Brain, heart, lung, liver, kidney, bowel, spleen, and bone marrow tissues were examined. Complete peripheral blood counts, biochemistry and liver function tests were normal.

In the case of `O=C(O)CCN1C(=O)/C(=C2/C(=O)Nc3ccc(Cl)cc32)SC1=S` [Compound 1085, (Z)-3-(5-(5-Chloro-2-oxoindolin-3-ylidene)-4-oxo-2-thioxothiazolidin-3-yl)propanoic acid], the 50% growth inhibitory concentration (GI50) in the data set with Ly1B50 DLBCL cells was over 40 µM; in the data set on Toledo DLBCL cells it was over 40 µM; in the data set with SUDHL6 DLBCL cells, 14 ± 7 µM; in the data set on Ly7 DLBCL cells, 23 ± 9 µM; with Ly3 DLBCL cells, over 40 µM; in the data set with Karpas 422 DLBCL cells, over 40 µM. This compound also returned a concentration for 50% growth inhibition (GI50) in the data set with Ly10 DLBCL cells of 23.5 ± 0.2 µM. The “sensitivity of ABC DLBCLs to treatment” value in [1] was “sensitive”. The “tumors with tumor regression” value in data set [2] is given as 95%. Further, the stability in solution result in [3] is “very stable in solution”. Besides, the “stability of the compound in the administration vehicle” value in data set [3] (30% PEG-300, 5% Tween-80, 65% dextrose 5%, room temperature, 8 days, NMR) is listed as “No significant changes in the structure”. Moreover, the “effect on germinal center” value with germinal center was “inhibited the germinal center”. In addition, the “sensitivity of primary human ABC DLBCL samples” value in data set [4] is “sensitive”. For the same compound, the pharmacokinetics entry in data set [5] is recorded as “favorable pharmacokinetics”. The “complete peripheral blood counts, biochemistry and liver function tests” value in the data set on mice is given as “normal”. In the data set with mice (cumulative 750 mg/kg), the “toxic effects or other indicators of sickness” value is given as “No toxic effects”.
